Assay results taken from patent US12398154B2, “Azaquinazoline pan-KRas inhibitors” (Mirati Therapeutics, Inc., priority 2020, dated 2025).

Columns and labels:
Assay in all cases: biochemical
KRas G12R = KRas G12R (Homo sapiens, UniProt P01116, G12R);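 also: TR-FRET displacement assay of compound binding to KRas, read after one hour at room temperature, potency from a four-parameter fit of percent-of-control values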
Description: (§1) The ability of a compound to bind to KRas was measured using a TR-FRET displacement assay. […] After a 60-minute incubation at room temperature, the reaction was measured using a BMG LABTECH CLARIO star Plus via TR-FRET. […] The POC values were fit to a 4-parameter IC50 equation and the IC50 value reported.

KRas G12V = KRas G12V (Homo sapiens, UniProt P01116, G12V);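 also: KRas binding measured by TR-FRET displacement at room temperature, IC50 fitted from percent of control values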
Sequence of KRas G12V (P01116 1-169 isoform P01116-2 G12V): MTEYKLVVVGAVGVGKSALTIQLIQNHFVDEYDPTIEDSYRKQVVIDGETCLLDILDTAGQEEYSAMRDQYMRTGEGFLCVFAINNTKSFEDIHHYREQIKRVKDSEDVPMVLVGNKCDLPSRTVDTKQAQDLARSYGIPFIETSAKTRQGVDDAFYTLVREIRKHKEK
Description: as §1

KRas G12D = KRas G12D (Homo sapiens, UniProt P01116, G12D);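 also: TR-FRET displacement binding assay on KRas, read after a one-hour incubation at room temperature, IC50 fitted from percent-of-control values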
Sequence of KRas G12D (P01116 1-169 isoform P01116-2 G12D): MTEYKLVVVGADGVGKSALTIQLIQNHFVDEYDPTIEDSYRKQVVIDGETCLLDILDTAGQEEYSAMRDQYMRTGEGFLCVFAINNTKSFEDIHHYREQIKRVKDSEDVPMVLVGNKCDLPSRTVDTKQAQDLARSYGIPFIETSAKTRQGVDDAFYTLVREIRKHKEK
Description: as §1

Sequence of KRas G12R (P01116 1-169 isoform P01116-2 G12R): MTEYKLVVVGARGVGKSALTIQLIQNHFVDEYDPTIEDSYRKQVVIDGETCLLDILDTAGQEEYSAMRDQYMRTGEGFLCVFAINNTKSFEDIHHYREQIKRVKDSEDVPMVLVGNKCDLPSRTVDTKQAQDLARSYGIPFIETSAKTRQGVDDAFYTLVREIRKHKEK

Compound	IC50 (KRas G12R)	IC50 (KRas G12V)	IC50 (KRas G12D)
OC1CCN(c2nc(OCC34CCCN3CCC4)nc3c(F)c(-c4cccc5cccc(F)c45)ncc23)CC1 [Example 11, 1-(8-fluoro-7-(8-fluoronaphthalen-1-yl)-2-((hexahydro-1H-pyrrolizin-7a-yl)methoxy)pyrido[4,3-d]pyrimidin-4-yl)piperidin-4-ol]	40.1 µM	20.8 µM	15.5 µM
O=C1NCCC2(CCCN(c3nc(OCC45CCCN4CCC5)nc4c(F)c(-c5cccc6cccc(F)c56)ncc34)C2)N1 (centres unmarked) [Example 72, 8-(8-fluoro-7-(8-fluoronaphthalen-1-yl)-2-((tetrahydro-1H-pyrrolizin-7a(5H)-yl)methoxy)pyrido[4,3-d]pyrimidin-4-yl)-1,3,8-triazaspiro[5.5]undecan-2-one]	14 µM	10.8 µM	14 µM
CC1(O)CCCN(c2nc(OCC34CCCN3CCC4)nc3c(F)c(-c4cccc5scnc45)ncc23)C1 (centres unmarked) [Example 68, 1-(7-(benzo[d]thiazol-4-yl)-8-fluoro-2-((hexahydro-1H-pyrrolizin-7a-yl)methoxy)pyrido[4,3-d]pyrimidin-4-yl)-3-methylpiperidin-3-ol]	27.6 µM	17 µM	11.6 µM
Fc1c(-c2cccc3cccc(F)c23)ncc2c(N3CCCC4CCCC43)nc(OCC34CCCN3CCC4)nc12 (centres unmarked) [Example 32, 8-fluoro-7-(8-fluoronaphthalen-1-yl)-2-((hexahydro-1H-pyrrolizin-7a-yl)methoxy)-4-(octahydro-1H-cyclopenta[b]pyridin-1-yl)pyrido[4,3-d]pyrimidine]	86.3 µM	≥ 100 µM	98.6 µM
CN(CCC(N)=O)c1nc(OCC23CCCN2CCC3)nc2c(F)c(-c3cccc4cccc(F)c34)ncc12 [Example 226, 3-((8-fluoro-7-(8-fluoronaphthalen-1-yl)-2-((hexahydro-1H-pyrrolizin-7a-yl)methoxy)pyrido[4,3-d]pyrimidin-4-yl)(methyl)amino)propanamide]	51.9 µM	14.1 µM	6.07 µM
Fc1c(-c2cccc3cccc(F)c23)ncc2c(N3CCCC4CC43)nc(OCC34CCCN3CCC4)nc12 (centres unmarked) [Example 31, 4-(2-azabicyclo[4.1.0]heptan-2-yl)-8-fluoro-7-(8-fluoronaphthalen-1-yl)-2-((hexahydro-1H-pyrrolizin-7a-yl)methoxy)pyrido[4,3-d]pyrimidine]	12.8 µM	13.2 µM	–
Fc1c(-c2cccc3cccc(F)c23)ncc2c(N3CCCc4ncccc4C3)nc(OCC34CCCN3CCC4)nc12 [Example 246, 6-(8-fluoro-7-(8-fluoronaphthalen-1-yl)-2-((hexahydro-1H-pyrrolizin-7a-yl)methoxy)pyrido[4,3-d]pyrimidin-4-yl)-6,7,8,9-tetrahydro-5H-pyrido[3,2-c]azepine]	11.3 µM	22.1 µM	6.41 µM
OC1CN(c2nc(OCC34CCCN3CCC4)nc3c(F)c(-c4cccc5cccc(F)c45)ncc23)Cc2ccnn2C1 (centres unmarked) [Example 255, 5-(8-fluoro-7-(8-fluoronaphthalen-1-yl)-2-((hexahydro-1H-pyrrolizin-7a-yl)methoxy)pyrido[4,3-d]pyrimidin-4-yl)-5,6,7,8-tetrahydro-4H-pyrazolo[1,5-a][1,4]diazepin-7-ol]	15.1 µM	11 µM	6.23 µM
O=C1CC2CCN(c3nc(OCC45CCCN4CCC5)nc4c(F)c(-c5cccc6cccc(F)c56)ncc34)CC2C(=O)N1 (centres unmarked) [Example 335, 7-(8-fluoro-7-(8-fluoronaphthalen-1-yl)-2-((hexahydro-1H-pyrrolizin-7a-yl)methoxy)pyrido[4,3-d]pyrimidin-4-yl)hexahydro-2,7-naphthyridine-1,3(2H,4H)-dione]	84.5 µM	≥ 100 µM	7.83 µM
Fc1c(-c2cccc3cccc(F)c23)ncc2c(N3CCSCC3)nc(OCC34CCCN3CCC4)nc12 [Example 50, 4-(8-fluoro-7-(8-fluoronaphthalen-1-yl)-2-((hexahydro-1H-pyrrolizin-7a-yl)methoxy)pyrido[4,3-d]pyrimidin-4-yl)thiomorpholine]	22.7 µM	22.6 µM	39 µM
CC1(C)CCCN(c2nc(OCC34CCCN3CCC4)nc3c(F)c(-c4cccc5cccc(F)c45)ncc23)C1 [Example 53, 4-(3,3-dimethylpiperidin-1-yl)-8-fluoro-7-(8-fluoronaphthalen-1-yl)-2-((hexahydro-1H-pyrrolizin-7a-yl)methoxy)pyrido[4,3-d]pyrimidine]	90.2 µM	49.4 µM	66.4 µM
NS(=O)(=O)OC1CCCN(c2nc(OCC34CCCN3CCC4)nc3c(F)c(-c4cccc5cccc(F)c45)ncc23)C1 (centres unmarked) [Example 248, 1-(8-fluoro-7-(8-fluoronaphthalen-1-yl)-2-((tetrahydro-1H-pyrrolizin-7a(5H)-yl)methoxy)pyrido[4,3-d]pyrimidin-4-yl)piperidin-3-yl sulfamate]	10.5 µM	9.78 µM	6.81 µM
Fc1c(-c2cccc3cccc(F)c23)ncc2c(N3CCOCC3)nc(OCC34CCCN3CCC4)nc12 [Example 49, 4-(8-fluoro-7-(8-fluoronaphthalen-1-yl)-2-((tetrahydro-1H-pyrrolizin-7a(5H)-yl)methoxy)pyrido[4,3-d]pyrimidin-4-yl)morpholine]	18.9 µM	27.9 µM	70 µM
Cc1cc2sc(N)nc2c(-c2ncc3c(N4CCCC(C)(O)C4)nc(OC[C@@]45CCCN4C[C@H](F)C5)nc3c2F)c1C (stereo partly drawn) [Example 39, 1-(7-(2-amino-5,6-dimethylbenzo[d]thiazol-4-yl)-8-fluoro-2-(((2R,7aS)-2-fluorotetrahydro-1H-pyrrolizin-7a(5H)-yl)methoxy)pyrido[4,3-d]pyrimidin-4-yl)-3-methylpiperidin-3-ol]	19.8 µM	25.5 µM	12.5 µM

These reach a lower IC50 (KRas G12R). Values come first.

IC50 (KRas G12R)	IC50 (KRas G12V)	IC50 (KRas G12D)	Compound
10.1 µM	6.1 µM	15.6 µM	NS(=O)(=O)CC1CCCN(c2nc(OCC34CCCN3CCC4)nc3c(F)c(-c4cccc5cccc(C(F)(F)F)c45)ncc23)C1 (centres unmarked) [Example 465, 1-(1-(8-fluoro-2-((hexahydro-1H-pyrrolizin-7a-yl)methoxy)-7-(8-(trifluoromethyl)naphthalen-1-yl)pyrido[4,3-d]pyrimidin-4-yl)piperidin-3-yl)methanesulfonamide]
10 µM	6.61 µM	6.37 µM	C[C@H]1C[C@@H](O)CN(c2nc(OCC34CCCN3CCC4)nc3c(F)c(-c4cccc5cccc(F)c45)ncc23)C1 [Example 33, (3R,5S)-1-(8-fluoro-7-(8-fluoronaphthalen-1-yl)-2-((hexahydro-1H-pyrrolizin-7a-yl)methoxy)pyrido[4,3-d]pyrimidin-4-yl)-5-methylpiperidin-3-ol]
8.87 µM	3.15 µM	15.5 µM	OC1CC2CC(C1)N(c1nc(OCC34CCCN3CCC4)nc3c(F)c(-c4cccc5cccc(F)c45)ncc13)C2 (centres unmarked) [Example 76, 6-(8-fluoro-7-(8-fluoronaphthalen-1-yl)-2-((hexahydro-1H-pyrrolizin-7a-yl)methoxy)pyrido[4,3-d]pyrimidin-4-yl)-6-azabicyclo[3.2.1]octan-3-ol]
6.37 µM	10.7 µM	48.8 µM	N#Cc1cccc2cccc(-c3ncc4c(N5CCCC(c6nc[nH]n6)C5)nc(OCC56CCCN5CCC6)nc4c3F)c12 (centres unmarked) [Example 456, 8-(4-(3-(1H-1,2,4-triazol-3-yl)piperidin-1-yl)-8-fluoro-2-((hexahydro-1H-pyrrolizin-7a-yl)methoxy)pyrido[4,3-d]pyrimidin-7-yl)-1-naphthonitrile]
3.09 µM	1.61 µM	1.86 µM	Fc1c(-c2cccc3cccc(F)c23)ncc2c(N3CCCOCC3)nc(OCC34CCCN3CCC4)nc12 [Example 42, 4-(8-fluoro-7-(8-fluoronaphthalen-1-yl)-2-((hexahydro-1H-pyrrolizin-7a-yl)methoxy)pyrido[4,3-d]pyrimidin-4-yl)-1,4-oxazepane]
2.18 µM	1.01 µM	0.632 µM	O=C1CC2(CCCN(c3nc(OCC45CCCN4CCC5)nc4c(F)c(-c5cccc6cccc(Cl)c56)ncc34)C2)CN1 (centres unmarked) [Example 2, 7-(7-(8-chloronaphthalen-1-yl)-8-fluoro-2-((tetrahydro-1H-pyrrolizin-7a(5H)-yl)methoxy)pyrido[4,3-d]pyrimidin-4-yl)-2,7-diazaspiro[4.5]decan-3-one]
1.71 µM	4.91 µM	16.6 µM	CN1CCC[C@H]1COc1nc(N2CCOCC2)c2cnc(-c3cc(O)cc4ccccc34)c(F)c2n1 [Example 195, (S)-4-(8-fluoro-2-((1-methylpyrrolidin-2-yl)methoxy)-4-morpholinopyrido[4,3-d]pyrimidin-7-yl)naphthalen-2-ol]
0.866 µM	0.565 µM	0.33 µM	CC1(O)CCCN(c2nc(OCC34CCCN3CCC4)nc3c(F)c(-c4cccc5cccc(Cl)c45)ncc23)C1 (centres unmarked) [Example 1, 1-(7-(8-chloronaphthalen-1-yl)-8-fluoro-2-((hexahydro-1H-pyrrolizin-7a-yl)methoxy)pyrido[4,3-d]pyrimidin-4-yl)-3-methylpiperidin-3-ol]
0.009 µM	0.008 µM	0.012 µM	CC1(O)CCCN(c2nc(OCC34CCCN3CCC4)nc3c(F)c(-c4cc(O)cc5ccccc45)ncc23)C1 (centres unmarked) [Example 151]
0.009 µM	0.008 µM	0.044 µM	CCc1c(F)ccc2cc(O)cc(-c3ncc4c(NCCC5CCNC5=O)nc(OC[C@@]56CCCN5C[C@H](F)C6)nc4c3F)c12 (stereo partly drawn) [Example 375, 3-(2-((7-(8-ethyl-7-fluoro-3-hydroxynaphthalen-1-yl)-8-fluoro-2-(((2R,7aS)-2-fluorohexahydro-1H-pyrrolizin-7a-yl)methoxy)pyrido[4,3-d]pyrimidin-4-yl)amino)ethyl)pyrrolidin-2-one]
